# According to patent US20240228572A1 (i2o Therapeutics, Inc., priority 2020, published 2024):
# *1 amine or outer side, *2 acyl side, *3 side chain or, on linkers, in order; H or OH if unused. Where a SMILES comes first, the peptide text is derived from it. Side-chain parts run from the residue outwards. [ ]: non-standard residue; d: D form. The star is where a group is joined. C20 diacid = O=C(O)CCCCCCCCCCCCCCCCCCC(=O)*; γGlu = O=C(O)[C@H](CCC(=O)[*:2])N[*:1]; AEEA = NCCOCCOCC(=O)O; Aib = CC(C)(N)C(=O)O
# Tests used:
# [1] = molecular target: T1, human GLP-1 receptor (GLP-1R) (Homo sapiens, UniProt P43220); experiment: cAMP accumulation assay, CHO-K1 cells stably expressing human GLP-1R; type: cell-based
# T1 construct: expressed in transfected cells
# [2] = molecular target: serum albumin (Rattus norvegicus, UniProt P02770); experiment: Fraction unbound (fu) in plasma by surface plasmon resonance, rat; type: in vitro ADME; details: SPR binding to serum albumin
# Method: Conventional methods of measuring plasma protein binding, such as equilibrium dialysis, ultrafiltration and ultracentrifugation, are not reliable with peptides because of their tendency to adsorb to the surface of plastic tubing, dialysis membranes and molecular weight cut-off filters. As a result, the extent to which acylated peptides bind to serum albumin was evaluated using surface plasmon resonance (SPR).
# [3] = Metabolic stability in human kidney brush border membranes (kBBM); type: in vitro ADME; details: 1 mcM peptide, 50 mcg protein/mL, 37° C., pH 7.4, read-out: kBBM t½
# Method: (§1) Brush border membranes from rat and human kidney tissue were prepared via centrifugation and stored at −70° C. Thawed stocks of rat or human kBBM were diluted to the appropriate concentration in 25 mM HEPES buffer (pH 7.4) containing 1% casein and aliquoted into a 96-well plate. The kBBM solutions were pre-warmed for 10 minutes at 37° C. Reactions were initiated by the addition of test peptide (1 mcM final concentration) also dissolved in 25 mM HEPES buffer (pH 7.4) containing 1% casein. The final concentration of kBBM in each incubation was 50 mcg protein/mL. Reactions were maintained at 37° C. in a shaking water bath. At 0, 0.25, 0.5, 1.0, 2.0, and 4.0 h post-initiation, 30 mcL of the reaction mixture was removed and placed into a 96-well plate containing 120 mcL of ice-cold methanol containing 2.5% formic acid. Quenched samples were centrifuged at 2178×g for 10 min and then a portion of the supernatants were transferred to a clean 96-well plate and diluted 1:1 with water.
# [4] = Stability in human subcutaneous (SC) tissue homogenates; type: in vitro ADME; details: subcutaneous (SC) tissue homogenate, 10 mcM peptide, 1.0 mg protein/mL, 37° C., pH 7.4, read-out: (H)SC tissue stability t½ (converted)
# Method: In vitro incubations in subcutaneous (SC) tissue homogenates were used to characterize the ability of peptides to resist pre-systemic degradation by proteases and peptidases after SC administration. In vivo nonclinical studies have shown that peptidase activity in the SC space can limit the bioavailability of a peptide after SC administration. Peptides with high SC bioavailability are stable in this assay, while peptides with low SC bioavailability are unstable in this assay.
# Human SC tissue was homogenized in cold 25 mM HEPES buffer (pH 7.4, 10-fold volume based on sample weight), and then filtered through a double layer of cheesecloth. The filtrates were aliquoted, flash frozen on a methanol/dry ice bath and stored at −80° C. The protein concentration of each pooled batch was determined using the BCA protein assay. Thawed stocks of human SC tissue homogenates were diluted to 1.0 mg protein/mL in 25 mM HEPES buffer (pH 7.4) and aliquoted into a 96-well plate. The diluted SC homogenates were pre-warmed for 10 minutes at 37° C. Reactions were initiated by the addition of test peptide (10 mcM final concentration) also dissolved in 25 mM HEPES buffer (pH 7.4). Reactions were maintained at 37° C. in a shaking water bath. […] Samples were analyzed by UPLC-MS/MS.
# [5] = Metabolic stability in rat kidney brush border membranes (kBBM); type: in vitro ADME; details: 1 mcM peptide, 50 mcg protein/mL, 37° C., pH 7.4, read-out: kBBM t½ (converted)
# Method: as §1
# [6] = test system: cynomolgus monkey GCGR; experiment: cAMP accumulation assay, CHO-K1 cells expressing cynomolgus monkey GCGR; type: cell-based; details: cyno glucagon receptor
# From the text: In the presence of the non-specific cAMP/cGMP phosphodiesterase inhibitor, 3-isobutyl-1-methylxanthine (IBMX), accumulating cAMP can be measured in vitro using common detection methods. Thus, it is possible to estimate an in vitro potency (pEC50) for peptides activating each of these receptors using fit dose-response curves for cAMP accumulation.
# A cDNA fragment encoding the full-length open reading frame of the cynomolgus monkey GLP-1R (Genebank accession #XM_028847603 was cloned into pcDNA3.1+ for expression in CHO-K1 cells. A cDNA fragment encoding the full-length open reading frame of the human GCGR (Genebank accession #NM_000160 was cloned into pcDNA3.1+ for expression in CHO-K1 cells. A cDNA fragment encoding the full-length open reading frame of the rat GCGR (Genebank accession #NM_12091 was cloned into pcDNA3.1+ for expression in CHO-K1 cells. A cDNA fragment encoding the full-length open reading frame of the cynomolgus monkey GCGR (Genebank accession #XM_005585255 was cloned into pcDNA3.1+ for expression in CHO-K1 cells. […]
# Peptides were serially diluted 4-fold in assay buffer to final concentrations ranging from 1×10^−9 M to 9.5×10^−16 M. Two assay controls consisting of 50 mcM forskolin (cAMP system maximum) or assay buffer only (cAMP system minimum) were also prepared. […] Plates were read on an Envision fluorescent plate reader (PerkinElmer). […]
# T1 sequence (P43220 24-463): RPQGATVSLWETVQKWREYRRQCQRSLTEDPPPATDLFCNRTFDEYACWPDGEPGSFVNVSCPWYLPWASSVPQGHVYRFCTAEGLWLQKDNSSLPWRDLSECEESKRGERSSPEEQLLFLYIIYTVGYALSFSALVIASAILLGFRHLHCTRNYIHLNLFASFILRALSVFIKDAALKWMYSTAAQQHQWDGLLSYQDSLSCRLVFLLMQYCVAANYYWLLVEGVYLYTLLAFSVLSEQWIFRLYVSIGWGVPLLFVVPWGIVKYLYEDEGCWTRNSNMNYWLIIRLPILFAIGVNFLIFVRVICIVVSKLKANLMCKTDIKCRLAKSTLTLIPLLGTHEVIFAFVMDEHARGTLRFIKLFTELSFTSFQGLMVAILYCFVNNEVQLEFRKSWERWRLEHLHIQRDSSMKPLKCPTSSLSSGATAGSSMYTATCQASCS
# serum albumin, sequence (P02770 25-608): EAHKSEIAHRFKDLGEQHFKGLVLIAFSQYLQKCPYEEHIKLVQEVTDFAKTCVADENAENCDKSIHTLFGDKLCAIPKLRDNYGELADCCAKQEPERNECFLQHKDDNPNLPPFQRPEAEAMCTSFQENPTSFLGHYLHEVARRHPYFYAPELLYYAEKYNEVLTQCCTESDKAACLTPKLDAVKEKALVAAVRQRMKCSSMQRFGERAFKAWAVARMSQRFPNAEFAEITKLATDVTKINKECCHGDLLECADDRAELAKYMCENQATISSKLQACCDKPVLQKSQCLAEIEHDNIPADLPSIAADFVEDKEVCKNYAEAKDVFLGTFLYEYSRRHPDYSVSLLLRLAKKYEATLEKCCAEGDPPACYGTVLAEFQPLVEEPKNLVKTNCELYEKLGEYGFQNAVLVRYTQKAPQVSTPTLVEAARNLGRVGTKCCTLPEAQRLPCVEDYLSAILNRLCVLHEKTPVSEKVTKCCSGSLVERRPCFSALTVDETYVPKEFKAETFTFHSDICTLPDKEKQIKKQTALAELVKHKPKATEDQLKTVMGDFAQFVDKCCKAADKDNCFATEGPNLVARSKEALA
compound,measurement,setting,value
CC(C)C[C@H](NC(=O)[C@H](Cc1ccc(O)cc1)NC(=O)[C@H](CCCCN)NC(=O)[C@H](CO)NC(=O)[C@H](Cc1ccc(O)cc1)NC(=O)[C@H](CC(=O)O)NC(=O)[C@H](CO)NC(=O)[C@@H](NC(=O)[C@H](Cc1ccccc1)NC(=O)[C@@H](NC(=O)CNC(=O)[C@H](Cc1c[nH]cn1)NC(=O)[C@H](CO)NC(=O)[C@@H](N)Cc1ccc(O)cc1)[C@@H](C)O)[C@@H](C)O)C(=O)N[C@@H](CC(=O)O)C(=O)NC(C)(C)C(=O)N[C@@H](CCCCN)C(=O)N[C@@H](Cc1ccc(O)cc1)C(=O)N[C@@H](C)C(=O)N[C@@H](CCC(N)=O)C(=O)N[C@@H](CCCCNC(=O)CC[C@H](NC(=O)CC[C@H](NC(=O)COCCOCCNC(=O)CCCCCCCCCCCCCCCCCCC(=O)O)C(=O)O)C(=O)O)C(=O)N[C@@H](Cc1ccccc1)C(=O)N[C@H](C(=O)NC(C)(C)C(=O)N[C@@H](Cc1c[nH]c2ccccc12)C(=O)N[C@@H](CC(C)C)C(=O)N[C@@H](CCC(=O)O)C(=O)N[C@@H](CC(=O)O)C(=O)N[C@@H](CCC(=O)O)C(=O)N1CCC[C@H]1C(=O)N[C@@H](CO)C(=O)N[C@@H](CO)C(=O)NCC(=O)N[C@@H](C)C(=O)N1CCC[C@H]1C(=O)N1CCC[C@H]1C(=O)N1CCC[C@H]1C(=O)N[C@@H](CO)C(=O)O)C(C)C [Compound A6] (H-YSHGTFTSDYSKYLD[Aib]KYAQK([γGlu-γGlu-AEEA-C20 diacid])FV[Aib]WLEDEPSSGAPPPS-OH; N-terminus assumed),EC50,[1],> 100 nM
same,Activity (as EC50 values) hGLP1R,"[1]; human GLP-1 receptor, Table 11",<7
same,fraction unbound,[2],0.0083
same,half-life at 1 mcM,[3],> 3 days
same,half-life at 10 mcM,[4],636 min
same,half-life at 1 mcM,[5],396 min
same,Activity (as EC50 values) cGCGR,[6],9.77
